{"source": "patent US10716771B2", "about": "“Pharmaceutical composition for preventing or treating immune diseases or inflammatory diseases, containing biguanide derivative compound as active ingredient” (THE CATHOLIC UNIVERSITY OF KOREA INDUSTRY-ACADEMIC …, priority 2013, dated 2020)", "key": {"IL-17": {"system": "IL-17", "assay": "IL-17 generation in mouse spleen cells under Th17 differentiation, sandwich ELISA", "assay_type": "cell-based", "conditions": "mouse spleen cells under Th17 stimulating condition, 3 days", "description": "In order to verify whether the biguanide derivative compound of the present invention has the activity of […] generation of IL-17 as an inflammatory cytokine in a Th17 cell which is a pathogenic cell, an expression degree of IL-17 was measured by an ELISA assay.\nSpleen cells were obtained from a normal mouse of C57BL/6 (Orient Company, Korea). That is, the tissue of the spleen extracted from the mouse was finely grinded by using a teasing slide and then erythrocytes in the spleen were removed by an erythrocyte hemolysis solution. Thereafter, a PBS buffer solution was added, centrifuged, and washed to obtain spleen cells.\n1×10^6 of the spleen cells from the mouse prepared through Example <2-1> were divided in a 24-well plate coated with […] of anti-CD3 antibody and simultaneously treated with 1 μg/mL of anti-CD28 antibody, 2 ng/ml of TGF-β, 20 ng/ml of IL-6 20 ng/ml, 2 μg/ml of anti-IL-4, and 2 μg/ml of anti-IFNr as a condition capable of stimulating Th17 cells, and then the cells were incubated for 3 days to induce the differentiation of the Th17 cells. […]\nIn order to measure an amount of the generated IL-17 cytokine, a supernatant of the incubated cells was collected and the IL-17 expression degree was examined by using a sandwich ELISA. […] Thereafter, a PNPP/DEA solution was added and colored, and then the absorbance was measured at a wavelength of 405 nm."}, "TNF-α": {"system": "TNF-α", "assay": "TNF-α expression in normal (human) cells", "assay_type": "cell-based", "conditions": "compared with metformin", "description": "In order to evaluate an effect of suppressing the expression of the inflammatory cytokine of the biguanide derivative compound of the present invention, the incubated supernatant was collected and the expression degrees of IL-17 and TNF-α of a mouse were examined by using a sandwich ELISA. […] of a monoclonal anti-IL-17 or anti-TNF-α was reacted in a 96-well plate at 4° C. overnight and then a non-specific binding was blocked by a blocking solution (1% BSA/PBST) after the reaction. An IL-17 or TNF-α recombinant was continuously diluted by 1/2 to be used as a standard, added with the cell-incubated supernatant, and reacted at room temperature for 2 hrs. Thereafter, biotinylated anti-IL-17 or anti-TNF-α was added and reacted at room temperature for 2 hrs, washed four times after the reaction, diluted with a diluted ExtraAvidin-alkaline phosphatase conjugate, and reacted at room temperature for 2 hrs. After the reaction, a PNPP/DEA was added and colored, and absorbance was measured at a wavelength of 405 nm.\nIn order to evaluate a development possibility of the biguanide derivative compound of the present invention as an agent for preventing or treating immune diseases, effects of modulating cytotoxicity and generation of inflammatory cytokines by targeting normal cells were measured by the same method as Example 8."}}}
{"smiles": "CC(C)NC(=N)NC(=N)N", "note": "[SD-000196, 1-isopropylbiguanide]", "values": [{"measurement": "IL-17 generated amount, dependence on treatment concentration", "setting": "IL-17; 2 μM, 20 μM and 200 μM", "value": "reduced depending on the treatment concentration"}, {"measurement": "generated amount of IL-17", "setting": "IL-17; 200 μM, sandwich ELISA", "value": "completely suppressed"}]}
{"smiles": "N=C(N)NC(=N)Nc1ccc(F)cc1F", "note": "[SD-000217, 1-(2,4-difluorophenyl)biguanide]", "values": [{"measurement": "expression of TNF-α", "setting": "TNF-α", "value": "suppressed"}]}
{"smiles": "NC(N)=N/C(N)=N/c1cccc(F)c1", "note": "[SD-000216, 1-(3-fluorophenyl)biguanide]", "values": [{"measurement": "expression of TNF-α", "setting": "TNF-α", "value": "suppressed"}]}
